Data taken from patent US8637038B2, “Methods for inhibiting allograft rejection” (Rigel Pharmaceuticals, Inc., priority 2011, dated 2014).
Read-outs that look alike come from different tables or passages of the source.

Tests used:
JAK1/3 [1] = assay: IL-2 whole blood lymphocytes phospho-STAT5; type: cell-based; details: Lymphocyte, read-out: IL-2 whole blood lymphocytes phospho-STAT5 EC50
Experimental: (§1) The activity of Compound III and Compound I was assessed in a panel of cell-based assays. Compound III and Compound I are selective inhibitors of JAK1/3-dependent signaling. Data for a non-selective JAK inhibitor (Compound IV) is shown for reference. Mixed lymphocyte reactions (MLRs) were performed by incubating freshly prepared naive human peripheral blood lymphocytes from one donor with CD80+/CD86+ mature Dendritic Cells derived from a different donor for 5 days. The percentage of CD3+/CD71+ (anti-CD3-APC, Clone HIT3a, anti-CD 71-FITC, Clone M-A712; BD Biosciences, San Jose, Calif.) proliferating cells was assessed by fluorescence-activated cell sorting (FACS; BD Bioscience). Interleukin-2 (IL-2)-dependent human primary T cell proliferation was assessed using CellTiter-Glo® Luminescent Cell Viability Assay (Promega, Madison, Wis.). STAT phosphorylation induced by different cytokines in human primary T cells was measured by intracellular FACS analysis (anti-pY694-STAT5 AlexaFluor488, anti-pY701-STAT1 AlexaFluor488, and anti-pY693-STAT4 AlexaFluor488; BD Biosciences). […] Interferon-γ (IFN-γ) signaling was assessed in the U937 monocytic cell line by measuring ICAM-1 surface expression by FACS (ICAM-1-APC, BD Bioscience).

A549 epithelial cells = assay: A549 proliferation; type: cell-based; details: Homo sapiens
Experimental: (§2) The erythropoietin (EPO)-dependent survival of cultured human erythroid progenitor cells (CHEPs) was determined using CellTiter-Glo® Luminescent Cell Viability Assay (Promega). Human primary T cell activation was assessed by measuring IL-2 production by ELISA (R&D Systems, Minneapolis, Minn., USA) following plate-bound anti-CD3 and anti-CD28 stimulation (Anti-Human CD3; BD Biosciences; Anti-Human CD28; Immunotech; Prague, Czech Republic). The enzymatic activity of tryptase released by human cultured mast cells (CHMCs) upon stimulation with IgE was quantified by cleavage of the synthetic fluorescent peptide substrate Z-Ala-Lys-Arg-7-amino-4-methylcoumarin (MP Biomedicals, Solon, Ohio, USA) in tryptase buffer. B-cell receptor-dependent Erk phosphorylation was measured in Ramos cells by intracellular FACS (anti-pT202/pY204-ERK1/2-AlexaFluor488; BD Biosciences). Cell proliferation assays were performed using A549 epithelial cells and H1299 lung carcinoma cells using nuclear staining to measure cell numbers (4′6-diamidino-2-phenylindole, dihydrochloride (DAPI; Invitrogen, Darmstadt, Germany)).

JAK1/3 [2] = assay: IL-2-dependent human primary T cell proliferation; type: cell-based
Experimental: as §1

JAK2 = assay: EPO-dependent survival of cultured human erythroid progenitor cells (CHEP); type: cell-based; details: for EC50: Homo sapiens, Erythroid progenitor cell, read-out: EPO CHEP Survival EC50
Experimental: as §2

[3] = system: Lew recipients of heterotopic BN heart transplants; assay: Five-day heart allograft study: donor-specific IgM antibodies by flow cytometry; type: in vivo, rat; details: LD and HD groups; five days; p<0.001
Experimental: Compound I and Compound III were provided by Rigel (South San Francisco, Calif.) and Tacrolimus was provided by Astellas (Munich, Germany). All drugs were administrated orally each in two different concentrations: Compound I LD (15 mg/kg BID; n=6) and HD (60 mg/kg BID; n=6); Compound III LD (5 mg/kg BID; n=6) and HD (20 mg/kg BID; n=6); Tac LD (1 mg/kg QD; n=6) and HD (4 mg/kg QD; n=6). Administration of all drugs was performed every day at the same time points. Tacrolimus was applied only once a day (QD) every 24 hours. During administration of Compound I (BID) and Compound III (BID) a 12 hour pause was kept in between each drug application.
Lew recipients of heterotopic BN heart transplants were randomly assigned to their group. Animals were either left untreated (groups 1 and 2; see Table 1,5-day study) or received their group specific medication (groups 3-8; see Table 1,5-day study) by oral application. An untreated syngeneic transplant group Lew-Lew was generated as control.
Donor splenocytes were isolated and erythrocytes were lysed using the ACK buffer (Lonza, Walkersville, Md.). Sera from recipient rats were decomplemented and equal amounts of sera and splenocyte suspensions (5×10^6 cells/ml) were incubated for 30 minutes at room temperature. IgM antibodies were stained by incubation of the cells with a conjugated mouse antibody specific for the Fc-portion of rat IgM (Monoclonal Anti-rat IGM, Clone RTM-32, Sigma) followed by incubation with a 488-conjugated secondary antibody (Invitrogen). Cells were washed with PBS, fixed with 2% paraformaldehyde (Science Services), and analyzed on a FACSCalibur™ system (BD Biosciences). Fluorescence data were expressed as mean fluorescence intensity (MFI) using Flowjo software (Tree Star, Inc., Ashland, Oreg.).

JAK1/2/Tyk2 = assay: IL-6 whole blood lymphocytes phospho-STAT3; type: cell-based; details: Lymphocyte, read-out: IL-6 whole blood lymphocytes phospho-STAT3 EC50
Experimental: as §1

Syk = assay: IgE CHMC tryptase release; type: cell-based; details: Homo sapiens, read-out: IgE CHMC tryptase EC50
Experimental: as §2

[4] = system: H1299 lung carcinoma cells; assay: H1299 proliferation; type: cell-based; details: Homo sapiens
Experimental: as §2

EGFR = molecular target: T1, EGFR (Homo sapiens, UniProt P00533); assay: EGF HeLa phospho-EGFR; type: cell-based
T1 construct: Growth factor-dependent protein phosphorylation was detected in HeLa cells; endogenous in cells; host or cells: HeLa
T1 sequence (P00533 25-1210): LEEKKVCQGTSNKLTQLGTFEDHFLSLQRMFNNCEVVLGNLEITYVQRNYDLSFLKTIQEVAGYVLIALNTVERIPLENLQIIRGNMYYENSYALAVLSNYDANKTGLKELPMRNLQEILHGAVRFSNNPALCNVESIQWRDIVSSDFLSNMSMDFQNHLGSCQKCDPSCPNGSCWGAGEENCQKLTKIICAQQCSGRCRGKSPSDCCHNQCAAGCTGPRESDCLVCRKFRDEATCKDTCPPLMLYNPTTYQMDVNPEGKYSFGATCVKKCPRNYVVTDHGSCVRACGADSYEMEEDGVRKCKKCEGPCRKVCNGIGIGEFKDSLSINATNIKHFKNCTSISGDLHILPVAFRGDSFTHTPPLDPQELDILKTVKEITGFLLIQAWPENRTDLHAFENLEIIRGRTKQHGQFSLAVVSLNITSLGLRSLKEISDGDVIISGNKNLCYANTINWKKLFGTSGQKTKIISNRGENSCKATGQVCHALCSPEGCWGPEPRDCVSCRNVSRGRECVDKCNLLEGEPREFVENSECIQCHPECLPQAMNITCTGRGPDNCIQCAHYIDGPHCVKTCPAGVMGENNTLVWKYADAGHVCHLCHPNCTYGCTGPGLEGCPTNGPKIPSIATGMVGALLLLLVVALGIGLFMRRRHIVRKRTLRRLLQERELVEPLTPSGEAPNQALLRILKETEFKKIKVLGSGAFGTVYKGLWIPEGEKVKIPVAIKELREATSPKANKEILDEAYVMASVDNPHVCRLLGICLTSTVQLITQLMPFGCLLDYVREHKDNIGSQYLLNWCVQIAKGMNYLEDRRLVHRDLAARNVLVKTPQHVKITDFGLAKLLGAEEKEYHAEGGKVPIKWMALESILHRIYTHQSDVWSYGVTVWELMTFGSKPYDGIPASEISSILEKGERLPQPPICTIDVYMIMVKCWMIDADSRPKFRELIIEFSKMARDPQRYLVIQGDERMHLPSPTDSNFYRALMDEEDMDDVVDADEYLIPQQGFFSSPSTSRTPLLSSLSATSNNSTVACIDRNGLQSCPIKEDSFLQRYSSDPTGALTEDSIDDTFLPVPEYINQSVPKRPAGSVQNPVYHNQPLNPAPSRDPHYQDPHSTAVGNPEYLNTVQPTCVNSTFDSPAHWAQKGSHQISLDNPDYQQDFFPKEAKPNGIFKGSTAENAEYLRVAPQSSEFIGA
Experimental: Growth factor-dependent protein phosphorylation was detected in HeLa cells by staining permeabilized cells with phospho-specific antibodies and quantified by chemiluminescence (Luminator, Wallac Multilabel Counter; Perkin Elmer). Akt phosphorylation was measured following insulin stimulation and EGFR phosphorylation was measured following EGF stimulation (Phospho-AKT, Cell signaling technology, Danvers, Mass.; 1 μM Insulin, Millipore, Billerica, Mass.; Phospho-EGFR, tyr1173, clone 53A3, Cell Signaling Technology; 200 ng/ml recombinant human EGF, PeproTech, Hamburg, Germany). Human umbilical vein endothelial cells (HUVECs) were stimulated with VEGF and VEGFR2 phosphorylation was assessed by ELISA (100 ng/ml VEGF165, R&D Systems; Rabbit anti-phospho-VEGFR2 mAb, Cell Signaling Technology).

JAK1/Tyk2 = assay: IFN-γ whole blood lymphocytes phospho-STAT1; type: cell-based; details: Lymphocyte, read-out: IFN-γ whole blood lymphocytes phospho-STAT1 EC50
Experimental: as §1

Structure (SMILES) | EC50 (JAK1/3 [1]; whole blood, JAK1/3) | EC50 (A549 epithelial cells; A549, upstream kinases Multiple, read-out: A549 proliferation EC50) | EC50 (JAK1/3 [2]; upstream kinases JAK1/3, read-out: IL-2 T cell proliferation EC50) | inhibition of JAK2-dependent CHEP differentiation and survival in response to EPO (JAK2) | EC50 (JAK2; upstream kinase JAK2) | donor-specific IgM antibodies (DSA) vs. no medication [3] | EC50 (JAK1/2/Tyk2; whole blood, JAK1/2/Tyk2) | EC50 (Syk; upstream kinase Syk) | EC50 ([4]; NCI-H1299, upstream kinases Multiple, read-out: H1299 proliferation EC50) | EGF HeLa phospho-EGFR EC50 (EGFR) | EC50 (JAK1/Tyk2; whole blood, JAK1/Tyk2) | EC50 (JAK1/3 [1]) | EC50 (A549 epithelial cells; A549, read-out: A549 proliferation EC50) | EC50 (JAK1/3 [2]; read-out: IL-2 T cell proliferation EC50) | EC50 (JAK2) | EC50 (JAK1/2/Tyk2) | EC50 (Syk) | EC50 ([4]; NCI-H1299, read-out: H1299 proliferation EC50) | EC50 (JAK1/Tyk2)
COc1cc(Nc2ncc(C)c(Nc3ccc4oc(=O)[nH]c4c3)n2)cc(C)c1F [Compound I, 5-(2-(4-fluoro-3-methoxy-5-methylphenylamino)-5-methylpyrimidin-4-ylamino)benzo[d]oxazol-2(3H)-one] | 416 ± 152 nM | 1860 ± 251 nM | 21 ± 7 nM | limited inhibition | 490 ± 246 nM | significant suppression | 3830 ± 1520 nM | 457 ± 263 nM | 3430 ± 1310 nM | Inactive | 153 ± 33 nM | – | – | – | – | – | – | – | –
COc1cc(Nc2ncc(C)c(Nc3ccc4oc(=O)[nH]c4c3)n2)cc(C)c1C [Compound III, 5-(2-(3-methoxy-4,5-dimethylphenylamino)-5-methylpyrimidin-4-ylamino)benzol[d]oxazol-2-(3H)-one] | – | – | – | limited inhibition | – | significant suppression | – | – | – | Inactive | – | 887 ± 295 nM | 5420 ± 3040 nM | 30 ± 13 nM | 1110 ± 339 nM | 6690 ± 1610 nM | 380 ± 150 nM | 5080 ± 1820 nM | 511 ± 279 nM
